Legend:
adenovirus of serotype 8 = assay: anti-adenoviral activity, plaque assay in human epithelial cell line NCTC 2544 (EP); format: cell-based, adenovirus type 8
Method: The anti-adenoviral activity of Compound No. 1 referred to above was tested as follows:
(§1) Cells of human epithelial cell line NCTC 2544 (EP) were serially passaged from 75 cm^2 tissue culture flasks (Corning) at a spilt ratio of 1/20 every 7 days. The growth medium was Eagles BHK medium supplemented with 10% foetal bovine serum and contained 2.5% of 4.4% sodium bicarbonate solution together with 1% of penicillin (5000 IU ml^-1) and streptomycin (600 μg ml^-1) (Flow).
A stock of adenovirus of type 8 was prepared in 25 cm^2 tissue culture flasks. Flasks were seeded with 2×10^6 EP cells in growth medium and incubated overnight at 37° C. The medium was decanted and 1.0 ml of stock virus suspension was added to the flask. After 1.0 hr adsorption 10 ml of maintenance medium (as above but with 2% serum) was added to the flask.
The flask were incubated at 37° C. After 72 hrs the classical'bunch of grapes' cytopathic effect was visible. The flasks were then frozen and thawed 3 times to liberate the virus and stored at -70° C. Viral titres were usually of the order of 4×10^8 pfu ml^-1.
The plaque assay was performed in 50 mm diameter plastic tissue culture dishes which were initially seeded with 2×10^6 EP cells in growth medium and incubated overnight in 5% CO2 at 37° C. […]

[1] = Cytotoxicity Determination, trypan blue exclusion method; format: cell-based; details: human, NCTC 2544 cells, read-out: 50% cell culture inhibitory concentration
Method: as §1
Cytotoxicity was determined by means of the trypan blue exclusion method. NCTC 2544 cells were prepared in growth medium and aliquots added to […] tissue culture flasks at approximately 1×10^5 cells/ml. At 24 hours the flasks were divided and replenished with growth medium. One half of the flasks received growth medium containing 10 fold dilutions of compound thus exposing the cells to 1, 10, and 100 μM concentrations. At 24, 48, and 72 hours representative flasks were removed from the incubator and the monolayers washed to remove debris. The cells were resuspended in growth medium and aliquots mixed with an equal volume of trypan blue. Stained and unstained cells were counted in a haemocytometer. Cell counts were adjusted to cells/ml. An estimate of the growth and viability of treated and untreated cells was then made.

adenovirus serotype 5 = assay: anti-adenovirus activity against serotype 5 (statement only); format: cell-based

Cc1cn([C@H]2C[C@H](F)[C@@H](CO)O2)c(=O)[nH]c1=O [Compound No. 1, 2',3'-dideoxy-3'-fluorothymidine]
anti-adenovirus activity (in words) (adenovirus of serotype 8; serotype 8): particularly high anti-adenovirus activity
IC50 (adenovirus of serotype 8; unidentified adenovirus, NCTC-2544, adenovirus serotype 8, EP cells, plaque assay): 0.005 µM
CC50 at 72 h [1]: 38 µM
anti-adenovirus activity (in words) (adenovirus serotype 5): particularly high anti-adenovirus activity

— patent US5070078A, “Antiviral compounds” (Burroughs Wellcome Co., priority 1987, dated 1991)
